Measured values as given in article PMC8639922, “KSHV transactivator-derived small peptide traps coactivators to attenuate MYC and inhibits leukemia and lymphoma cell growth” (Communications Biology, 2021).
Square brackets hold non-standard residues; d marks the D form. Peptide text beside a SMILES is read from it. Orn = NCCC[C@H](N)C(=O)O; βAla = NCCC(=O)O

What was measured:
[1] = test system: 5 SWI/SNF components; assay: ELISA-based peptide binding assay, summary for all five proteins; conditions: biotin-conjugated peptide, same peptide concentrations
Protocol: Fig. 3 Effects of VGN50 on KSHV gene transcription and VGN50 binding with SWI/SNF components. a KSHV qRT-PCR array analysis was used to study effects of VGN50 on KSHV gene transcription in a genome-wide manner. Uninduced (−; no doxycycline added) or dox-induced (+; 1 μg/ml) cells were treated with VGN50 or the mutant peptide (Mut-P) at a concentration of 24 μM. Samples were collected at 24 h post-treatment. Expression in uninduced cells was set as 1 for each viral gene and expression shown as fold activation relative to no-Dox samples. Selected cellular genes were also included in the PCR array for comparison. 18S ribosomal RNA was used as an internal control. b KSHV protein expression. […] Peptide binding measured as OD values at 450 nm are shown. […]
To confirm the basis of the VGN50 action, the biochemical interactions between VGN50 and SWI/SNF proteins (i.e., putative VGN50 target molecules), were examined by ELISA-based binding assays using purified five individual SWI/SNF components prepared from baculovirus-infected Sf9 cells (Fig. 3d). Increasing concentrations of biotin-conjugated VGN50 or Mut-P were incubated in an ELISA plate coated with each SWI/SNF component, and the bound peptides were detected by HRP-streptavidin (Fig. 3e). […]

[2] = test system: MYC expression in BCBL-1; assay: MYC qRT-PCR; format: cell-based, human; conditions: BCBL-1, 24 μM, 24 h
Protocol: (§1) As a next step, we sought to identify the cellular pathways that are impacted by VGN50. For this, RNA-seq analysis was conducted on total RNA isolated from cells harvested after 24 h of incubation with VGN50. Mutant peptide was used as a comparison to identify differentially regulated genes by VGN50 (Fig. 4a). […] Furthermore, we confirmed the result by RT-qPCR that the expression of MYC itself was decreased in both BCBL-1 and BC-1 cells after treatment with VGN50, but not mutant peptide (Fig. 4c).
(§2) Fig. 4 VGN50 target identification with RNA-sequencing. a Total RNA-sequencing. BCBL-1 cells were treated with either VGN50 or mutant peptide for 24 h (24 μM, n = 3). Untreated cells were used as a negative control. RNA-sequencing datasets from VGN50-peptide-treated samples were compared with that from mutant-peptide-treated samples, and differentially regulated genes were depicted as a volcano plot (left panel). b Gene Set Enrichment Analyses (GSEA). […] Peptide-treated samples were used for qRT-PCR analysis in duplicate and confirmed MYC down-regulation. (VGN50, 24 μM, 24 h post treatment) d Direct target identification with SLAM-seq. The experimental scheme is shown in the upper section of the panel. VGN50 or mutant peptide (24 μM final concentration) were added to BC-1 or BCBL-1 cells 30 mins prior to incubation with 4sU, and RNA was labeled for 1 h in the presence of each peptide. The C/T converted RNA-species were compared with mock-treated samples and depicted as scatter plots. Each treatment was performed in duplicate and nascent transcripts with p-values <0.05 are indicated as red dots. e Integrative Genomics Viewer (IGV). Both non-T/C converted and converted sequence reads were visualized with the IGV, and a snapshot of the MYC 3′-UTR region is presented. […] The strategy of gene selection for CSAN is described on the left-hand side of the panel. […] The number of common transcriptional regulators are shown in the Venn diagram and selected transcription and co-regulatory protein names are also included. The complete list of gene names is presented in Supplementary Fig. 3.

[3] = test system: MYC expression in BC-1; assay: MYC qRT-PCR; format: cell-based, human; conditions: BC-1, 24 μM, 24 h
Protocol: as §1, §2

**Q.** Which “Binding to SWI/SNF components compared with VGN50” value [1] does the source give for `CC(C)C[C@H](NC(=O)CCNC(=O)[C@H](CCCNC(=N)N)NC(=O)[C@H](CCCNC(=N)N)NC(=O)[C@H](CCCNC(=N)N)NC(=O)[C@H](CCCN)NC(=O)[C@H](CCCNC(=N)N)NC(=O)[C@H](CCCNC(=N)N)NC(=O)[C@H](CCCCN)NC(=O)[C@H](CCCCN)NC(=O)[C@H](N)CCCNC(=N)N)C(=O)N[C@@H](CO)C(=O)N[C@@H](CO)C(=O)N[C@@H](C)C(=O)N[C@@H](C)C(=O)N[C@@H](C)C(=O)NCC(=O)N[C@@H](CC(C)C)C(=O)N[C@@H](Cc1ccc(O)cc1)C(=O)N[C@@H](CCC(N)=O)C(=O)N[C@@H](CC(C)C)C(=O)N[C@@H](CC(=O)O)C(=O)N[C@H](C(=O)O)[C@@H](C)O` [Mt-P] (H-[dR]KKRR[Orn]RRR[βAla]LSSAAAGLYQLDT-OH; N-terminus and C-terminus assumed) here?
**A.** did not bind SWI/SNF components as much as VGN50

**Q.** What about the “C-myc 2^-(DCT)” value ([2]; replicate 1) of the same compound?
**A.** 9.038e-5

**Q.** And the “C-myc 2^-(DCT)” value ([2]; replicate 2)?
**A.** 8.988e-5

**Q.** What about the “C-myc 2^-(DCT)” value ([3]; replicate 1) of the same compound?
**A.** 9.403e-5

**Q.** And the “C-myc 2^-(DCT)” value ([3]; replicate 2)?
**A.** 9.337e-5
